The values that follow come from patent US9815852B2, “Macrocyclic compounds and methods of treatment” (University of Florida Research Foundation, Inc., priority 2014, dated 2017).

Read-outs that look alike come from different tables or passages of the source. Where only a bound is given, the exact number is not on record here.

What all share (type): biochemical
One experiment addresses T1, HDAC8 (Homo sapiens, UniProt Q9BY41).
T1 sequence (Q9BY41 1-377): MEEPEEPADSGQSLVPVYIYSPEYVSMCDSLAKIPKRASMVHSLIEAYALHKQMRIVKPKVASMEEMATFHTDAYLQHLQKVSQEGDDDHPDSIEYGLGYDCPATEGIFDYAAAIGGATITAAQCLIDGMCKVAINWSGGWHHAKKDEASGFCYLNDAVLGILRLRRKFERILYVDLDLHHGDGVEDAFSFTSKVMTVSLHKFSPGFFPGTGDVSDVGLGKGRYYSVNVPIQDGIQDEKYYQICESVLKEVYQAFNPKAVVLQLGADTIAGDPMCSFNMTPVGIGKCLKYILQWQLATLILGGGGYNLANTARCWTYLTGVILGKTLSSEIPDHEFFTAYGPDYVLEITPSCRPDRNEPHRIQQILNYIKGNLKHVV
In words: HDAC enzyme inhibitory assay (fluorescence), HDAC8. The method, then: (§1) Enzyme inhibitory assays were carried out essentially as follows. In brief, compounds were incubated with the appropriate HDAC enzyme, the appropriate HDAC substrate, bovine serum albumin, and HDAC buffer. Duplicate reactions were carried out at 37° C. for 30 min. The reactions were quenched at the end of the incubation period with the addition of HDAC developer. Reactions were further incubated for 15 min at room temperature prior to fluorescence measurement (ex 360 nm/em 460 nm). The % inhibitory activity was calculated according to the equation (F−Fb)/(Ft−Fb), where F—fluorescent intensity of compound treated wells, Fb—fluorescent intensity of blank wells, Ft—fluorescent intensity of solvent control wells. IC50 values were calculated using GraphPad Prism.

A further experiment addresses HDAC3 (Homo sapiens, UniProt O15379). The experiment can be described thus: HDAC enzyme inhibitory assay (fluorescence), HDAC3. Conditions: for IC50 (HDAC3)/IC50 (HDAC1): selectivity ratio, table. As to the method:
as §1

The next experiment deals with HDAC1 (Homo sapiens, UniProt Q13547). In words: HDAC enzyme inhibitory assay (fluorescence), HDAC1. The method, then:
as §1

In the next experiment the target is HDAC2 (Homo sapiens, UniProt Q92769). The experiment can be described thus: HDAC enzyme inhibitory assay (fluorescence), HDAC2. Conditions: for IC50 (HDAC2)/IC50 (HDAC1): selectivity ratio, table. The method, then:
as §1

The test system of a further experiment is class I HDACs. In words: HDAC enzyme inhibitory assay, class I HDACs overall. The conditions noted are these: class I HDACs tested (HDAC1, 2, 3, 8). The method, then: as §1, with “Reactions were further incubated for 15 min at room temperature prior to fluorescence measurement (ex 360 nm/em 460 nm).” left out
[1] abbreviates: no inhibition up to highest concentration 1 μM.
The mark [2] stands for this setting: read-out: IC50 HDAC8, 'No Inhibition up to 1 μM', no inhibition up to highest concentration 1 μM.

Sequence of HDAC2 (Q92769 whole entry, species assumed): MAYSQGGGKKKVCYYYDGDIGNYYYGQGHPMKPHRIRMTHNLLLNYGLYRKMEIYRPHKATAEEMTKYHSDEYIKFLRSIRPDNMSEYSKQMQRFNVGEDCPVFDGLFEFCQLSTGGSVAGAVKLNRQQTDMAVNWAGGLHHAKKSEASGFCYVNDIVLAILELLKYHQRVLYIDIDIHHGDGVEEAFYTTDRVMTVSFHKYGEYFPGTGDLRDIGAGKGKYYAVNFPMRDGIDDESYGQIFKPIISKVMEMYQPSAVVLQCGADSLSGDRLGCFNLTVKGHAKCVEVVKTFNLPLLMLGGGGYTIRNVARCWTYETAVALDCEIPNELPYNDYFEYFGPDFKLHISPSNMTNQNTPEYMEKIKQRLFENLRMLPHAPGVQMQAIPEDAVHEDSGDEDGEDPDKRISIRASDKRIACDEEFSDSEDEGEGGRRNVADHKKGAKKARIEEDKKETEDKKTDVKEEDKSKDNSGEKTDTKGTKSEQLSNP
Sequence of HDAC1 (Q13547 whole entry, species assumed): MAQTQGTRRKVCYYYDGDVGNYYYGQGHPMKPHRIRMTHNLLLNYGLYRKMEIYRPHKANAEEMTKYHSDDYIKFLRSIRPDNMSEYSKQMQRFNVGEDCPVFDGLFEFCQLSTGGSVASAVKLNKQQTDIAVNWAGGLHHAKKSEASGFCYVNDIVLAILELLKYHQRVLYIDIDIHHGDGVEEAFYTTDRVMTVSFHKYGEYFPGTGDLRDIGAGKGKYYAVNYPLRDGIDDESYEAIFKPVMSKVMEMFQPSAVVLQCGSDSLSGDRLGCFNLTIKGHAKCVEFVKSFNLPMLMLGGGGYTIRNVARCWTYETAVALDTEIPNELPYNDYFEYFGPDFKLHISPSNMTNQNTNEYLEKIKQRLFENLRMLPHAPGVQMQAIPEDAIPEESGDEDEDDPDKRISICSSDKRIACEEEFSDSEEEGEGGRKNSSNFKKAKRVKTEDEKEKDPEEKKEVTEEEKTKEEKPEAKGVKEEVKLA
Sequence of HDAC3 (O15379 whole entry, species assumed): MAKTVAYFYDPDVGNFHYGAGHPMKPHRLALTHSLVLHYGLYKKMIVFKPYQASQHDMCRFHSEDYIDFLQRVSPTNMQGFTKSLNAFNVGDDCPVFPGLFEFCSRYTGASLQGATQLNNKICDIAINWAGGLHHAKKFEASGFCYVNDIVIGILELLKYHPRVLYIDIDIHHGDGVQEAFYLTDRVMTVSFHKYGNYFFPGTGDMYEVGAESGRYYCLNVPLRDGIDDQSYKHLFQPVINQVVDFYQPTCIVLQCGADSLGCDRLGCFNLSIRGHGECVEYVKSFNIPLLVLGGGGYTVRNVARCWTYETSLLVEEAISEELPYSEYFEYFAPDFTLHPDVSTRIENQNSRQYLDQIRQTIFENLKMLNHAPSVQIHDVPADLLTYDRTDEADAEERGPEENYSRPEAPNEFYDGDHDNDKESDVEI
Sequence of HDAC3 (Q9Y618 395-489 partner limits assumed, species assumed): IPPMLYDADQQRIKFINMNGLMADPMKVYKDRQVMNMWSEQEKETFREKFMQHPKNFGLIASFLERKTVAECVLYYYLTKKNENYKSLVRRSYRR

With `C[C@@]12CSC(=N1)c1csc(n1)CNC(=O)C[C@@H](/C=C/CCS)OC(=O)[C@H](CCN)NC2=O` [Compound 7], the IC50 – broadly, the point on the concentration scale where inhibition reaches its midpoint – at HDAC8 (setting [1]) was greater than 1000 nM.
Consider `CC(C)(C)OC(=O)NCCCC1NC(=O)C2(C)CSC(=N2)c2csc(n2)CNC(=O)CC(C=CCCS)OC1=O` (centres unmarked) [Compound 10], for which the IC50 was 1.8 nM against HDAC3, 0.96 nM on HDAC1, 1.4 nM against HDAC2 and 790 nM on HDAC8 (read-out: IC50 (nM) HDAC8). Besides, at HDAC3, the “IC50 (HDAC3)/IC50 (HDAC1)” value is recorded as 1.9. Further, the “IC50 (HDAC2)/IC50 (HDAC1)” value on HDAC2 is listed as 1.5. Moreover, the “HDAC inhibition, potency in words” value with class I HDACs is given as “more potent than 9”.
In the case of `CC(C)(C)OC(=O)NCCC1NC(=O)C2(C)CSC(=N2)c2csc(n2)CNC(=O)CC(C=CCCS)OC1=O` (centres unmarked) [Compound 9], the IC50 against HDAC3 is 4.2 nM; on HDAC1, 2.3 nM; on HDAC2 it was 3.1 nM; at HDAC8 (setting [2]), greater than 1000 nM. Also, the “IC50 (HDAC3)/IC50 (HDAC1)” value at HDAC3 is on record as 1.8. Moreover, at HDAC2, the “IC50 (HDAC2)/IC50 (HDAC1)” value is 1.4.
As for `CC12CSC(=N1)c1csc(n1)CNC(=O)CC(C=CCCS)OC(=O)C(CC(=O)O)NC2=O` (centres unmarked) [Compound 6], the values for the IC50 against HDAC1 and at HDAC8 (setting [2]) were 39 nM and greater than 1000 nM, respectively. For the same compound, the “HDAC inhibition, potency in words” value in the experiment with class I HDACs is “significant reduction in activity”.
Take `C[C@@]12CSC(=N1)c1csc(n1)CNC(=O)C[C@@H](/C=C/CCS)OC(=O)[C@H](CCCN)NC2=O` [Compound 8]: on HDAC8 (setting [1]), the IC50 was greater than 1000 nM.
Compound `C[C@@]12CSC(=N1)c1csc(n1)CNC(=O)C[C@@H](/C=C/CCS)OC(=O)[C@H](Cc1ccc(O)cc1)NC2=O` [Compound 4] returned an IC50 at HDAC8 (setting [1]) greater than 1000 nM.
As to `CC12CSC(=N1)c1csc(n1)CNC(=O)CC(C=CCCS)OC(=O)C(Cc1ccccc1)NC2=O` (centres unmarked) [Compound 3], the IC50 was 0.29 nM at HDAC1 and greater than 1000 nM at HDAC8 (setting [2]).
For the compound `CC12CSC(=N1)c1csc(n1)CNC(=O)CC(C=CCCS)OC(=O)C(Cc1c[nH]cn1)NC2=O` (centres unmarked) [Compound 5], at HDAC3, the IC50 is 1.1 nM, the “selectivity towards HDAC1 over HDAC3” value is 5.5 fold and the “IC50 (HDAC3)/IC50 (HDAC1)” value turned out to be 5.5. For the same compound, at HDAC1, the midpoint of inhibition, the IC50, lay at 0.2 nM. At HDAC2, inhibition was half-maximal at 1.4 nM (IC50), the “selectivity towards HDAC1 over HDAC2” value came to 7 fold and the “IC50 (HDAC2)/IC50 (HDAC1)” value was 7.0. In addition, the IC50 at HDAC8 (setting [2]) was greater than 1000 nM.
